Broadly, the % inhibition is the change of the read-out against control, counted positive when it falls. Higher therefore signals strong suppression.

The values that follow come from patent US12208118B2, “Pharmaceutical compositions for delivery of peptide” (ANYA BIOPHARM INC., priority 2017, dated 2025).

The target in one data set is T1, Human Carboxypeptidase B (Homo sapiens, UniProt P15086).
T1 sequence (P15086 111-417): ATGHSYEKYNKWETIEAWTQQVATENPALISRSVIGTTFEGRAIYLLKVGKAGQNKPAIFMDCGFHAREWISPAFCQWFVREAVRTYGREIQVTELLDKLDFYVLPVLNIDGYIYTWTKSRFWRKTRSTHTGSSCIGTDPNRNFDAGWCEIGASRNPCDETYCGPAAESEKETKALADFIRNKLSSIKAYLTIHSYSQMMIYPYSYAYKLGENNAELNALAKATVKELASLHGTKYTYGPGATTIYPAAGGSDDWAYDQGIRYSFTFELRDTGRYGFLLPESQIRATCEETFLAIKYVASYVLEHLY
In words: Oxidative inactivation of Carboxypeptidase by combinations of metal salts and reducing agents (enzymatic activity). The format is biochemical. The following applies: reducing agent 1 mM, metal salt 5 μM, compared with original activity, in % (unit assumed). As to the method: (§1) Enzyme Activity Assay: The assay of enzymatic activity of each enzyme in the presence of its specific substrate was performed at a particular wavelength by using UV spectrophotometer, and it served as a negative control. The enzyme activity was calculated as: […]
(§2) Enzyme Inhibition Assay: Incubation was performed with inhibitor of each enzyme, which served as a positive control.
(§3) Incubation with metal ion(s) and reducing agent(s): Incubation of enzymes with combination of metal salt(s) and reducing agent(s) in microtitre 96 well plate was done for a specific period of time in presence of substrates to examine their oxidative inactivation. Inactivation of enzyme in presence of metal ion(s) and reducing agent(s) was compared with the original enzyme activity in the presence of substrate as a negative control and in the presence of inhibitor as a positive control.
Assay for Enzymatic Activity of Carboxypeptidase B Using Hippuryl-Arginine
4 units of Carboxypeptidase B in cold deionized water, 1 mm Hippuryl-Arginine solution in 25 mM Iris Buffer solution containing 100 mM Sodium Chloride (pH 7.65) were prepared, separately at about 25° C. 3 ml reaction mixtures (Test and blank) were prepared using above prepared solutions according to Table 9 at 25° C. […]
(§4) For a 200 μl reaction mixture, about 10 μl Carboxypeptidase was incubated in buffer with the combination of metal salts and reducing agents (provided in Table 2 at serial number 1 through 31) at respective concentration at 37° C. in 96 well microtitre plates (Table 3 hereinabove provides details on utilization of a particular combination from those provided at serial number 1 through 31 in Table 2) for 5 min, 15 min and 30 min followed by the addition of respective 90 μl substrate (provided in Table 1A). The enzyme activity was measured spectrophotometrically in a microplate reader, and was compared with original activity assay. The pH was measured by Hanna Combination pH electrode (reaction with enzyme was performed in triplicates). […]

The target in another data set is T2, Porcine Aminopeptidase M (Sus scrofa, UniProt P15145).
T2 sequence (P15145 1-963): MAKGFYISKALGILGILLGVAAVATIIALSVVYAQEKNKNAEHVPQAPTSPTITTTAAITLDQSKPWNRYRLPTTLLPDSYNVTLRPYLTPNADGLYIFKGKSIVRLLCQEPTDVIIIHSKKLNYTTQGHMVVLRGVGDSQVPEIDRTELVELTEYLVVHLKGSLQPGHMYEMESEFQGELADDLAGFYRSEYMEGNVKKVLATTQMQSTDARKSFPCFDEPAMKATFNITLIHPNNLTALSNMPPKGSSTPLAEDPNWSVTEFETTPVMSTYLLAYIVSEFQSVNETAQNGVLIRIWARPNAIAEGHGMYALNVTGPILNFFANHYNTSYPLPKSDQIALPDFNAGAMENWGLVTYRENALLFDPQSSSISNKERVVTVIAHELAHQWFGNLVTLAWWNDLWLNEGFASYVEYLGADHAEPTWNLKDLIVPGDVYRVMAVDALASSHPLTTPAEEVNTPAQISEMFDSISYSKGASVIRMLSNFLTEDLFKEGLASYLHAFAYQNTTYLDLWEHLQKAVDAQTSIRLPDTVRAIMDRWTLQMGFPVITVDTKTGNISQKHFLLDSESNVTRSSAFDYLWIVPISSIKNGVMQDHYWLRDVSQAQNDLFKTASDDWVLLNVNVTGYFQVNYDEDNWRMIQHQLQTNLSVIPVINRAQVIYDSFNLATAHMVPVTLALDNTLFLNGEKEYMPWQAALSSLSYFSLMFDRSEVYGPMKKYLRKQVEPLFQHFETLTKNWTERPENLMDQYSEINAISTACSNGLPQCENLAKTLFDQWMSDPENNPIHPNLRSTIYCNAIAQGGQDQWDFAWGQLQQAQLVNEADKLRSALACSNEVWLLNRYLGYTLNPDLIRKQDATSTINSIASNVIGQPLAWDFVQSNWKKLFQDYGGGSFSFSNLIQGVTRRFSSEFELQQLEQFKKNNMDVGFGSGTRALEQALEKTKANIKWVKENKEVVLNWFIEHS
In words: Oxidative inactivation of Aminopeptidase by combinations of metal salts and reducing agents (enzymatic activity). The format is biochemical. The following applies: compared with original activity, in % (unit assumed). As to the method:
as §1, §2, §3
To Assay the Enzymatic Activity of Aminopeptidase M Using L-Leucine-p-Nitroanilide
1 mM Tricine solution (Prepared in 100 ml deionized water, Reagent A) and 50 mM L-Leucine-p-nitroanilide solution in absolute methanol (Reagent B) were prepared, separately. […] Reagent G, Reagent E and Reagent F were mixed immediately by inversion to prepare test and blank solution as directed in table 12, and the increase in ΔA405 nm was recorded for approximately 5 minutes. ΔA405 nm/minute was obtained using maximum linear rate for both the Test and blank solution. […]
as §4, with “Aminopeptidase” for “Carboxypeptidase”, “assay.” for “assay. The pH was measured by Hanna Combination pH electrode (reaction with enzyme was performed in triplicates).”

Data set [1] can be described thus: Quantification of insulin glargine level in STZ induced diabetic rat plasma (Glargine ELISA), bioavailability. It is filed as in vivo, S.D. rats. Particulars: following subcutaneous and mid-jejunum administration, rats. As to the method: (§5) Quantification of Glucose & Insulin Glargine Level in STZ Induced Diabetic Rat Plasma
(§6) Glucose & insulin glargine levels in plasma were quantified after dosing several formulations of insulin glargine to mid-jejunum in STZ induced diabetic S.D. rats.
(§7) Test formulation I: Insulin glargine (Lantus®)—Appearance: Solution for injection in a prefilled pen; Concentration: 100 IU/ml; Storage condition: 2-8° C.; Dose: 0.2 U/kg; Route: SC.
(§8) Test formulation II: Insulin glargine Formulation—MIRA 1 (Reduced glutathione/Chromium Picolinate of Table 15A)+Permeation Enhancer 1 (PA 1 of Table 16A) (oral solution in TRIS buffer)—Dose: 1.7 U/animal; Route: mid-jejunum
(§9) Test formulation III: Insulin glargine Formulation—PA 2 (of Table 16B) and MIRA 2 (Ascorbate Sodium/Vanadium Oxide of Table 15B) (oral solution in TRIS buffer)—Dose: 1.7 U/animal; Route: mid-jejunum.
The clinical signs observed are normal. […] Glucose was measured immediately after blood collection using Glucometer. […]
Principle: This Glargine ELISA is a two-site immunoassay, employing a monoclonal antibody immobilised on microtitre wells and a soluble antibody labelled with horseradish peroxidase (HRP). […] The intensity of the colour developed in each well is quantified in a microtitre plate reader set to record transmitted light at a wavelength of 450 nm (Kit Protocol: Used manufacturer recommended protocol Cat. No. MBS495369) […]
For orientation: In an ELISA, binding on a coated surface is turned into a signal by an enzyme label.

The subject of data set [2] is STZ induced diabetic S.D. rats. In words: Glucose level in STZ induced diabetic rats after different formulations (Glucometer, % inhibition). It is filed as in vivo. The following applies: glucose by Glucometer. As to the method:
as §5, §6, §7, §8, §9
The clinical signs observed are normal. With respect to sampling time points, during dosing, the blood collection time points was at 0, 20, 40, 60, 120 and 150 minutes post dose. ˜100 μl of blood was collected in a pre-filled Na-EDTA eppendorf, from retro-orbital sinus puncture. Blood was centrifuged at 5000 rpm, 5 min, 4° c. to obtain plasma. Glucose was measured immediately after blood collection using Glucometer.

For the molecule `O=C(/C=C/C=C/c1ccc2c(c1)OCO2)N1CCCCC1` [Piperine], the “Enzymatic activity of Carboxypeptidase” value on Human Carboxypeptidase B (incubation 5 min at 37° C.) was 104.5; on Human Carboxypeptidase B (incubation 15 min at 37° C.), 91.7; at Human Carboxypeptidase B (incubation 30 min at 37° C.), 62.26. For the same molecule, the “Enzymatic activity of Aminopeptidase” value is listed as 108 at Porcine Aminopeptidase M (Time 5 min incubation at 37° C.), 100.4 on Porcine Aminopeptidase M (Time 15 min incubation at 37° C.) and 80.52 on Porcine Aminopeptidase M (Time 30 min incubation at 37° C.).
For the molecule Insulin glargine, in data set [1], the clinical signs entry was “normal”. Moreover, the mortality entry in data set [1] is “no mortality observed”. For the same molecule, the “% inhibition” value is on record as 22.9% in data set [2] (20 min post dose); 25.5% in data set [2] (40 min post dose); 22% in data set [2] (60 min post dose); 39% in data set [2] (120 min post dose); 17.2% in data set [2] (150 min post dose).
